{"source": "paper PMC2650736", "about": "(Drug metabolism and disposition: the biological fate of …, 2008)", "key": {"[1]": {"type": "in vivo, human", "settings": "for Cmax: read-out: Cmax, Geometric Mean (CV %)"}, "[2]": {"assay": "Midazolam absorptive permeability in Caco-2 cell monolayers", "type": "in vitro ADME, human", "settings": "human, apical to basolateral, midazolam 3 μM"}, "Caco-2 cell monolayers": {"system": "Caco-2 cell monolayers", "assay": "Midazolam absorptive permeability in Caco-2 cell monolayers", "type": "in vitro ADME, human"}, "[3]": {"settings": "CBJ, single oral 5 mg midazolam"}, "[4]": {"settings": "water, single oral 5 mg midazolam"}}, "note": "Like-named read-outs stand apart in the source and are kept apart here."}
{"smiles": "OCc1ncc2n1-c1ccc(Cl)cc1C(c1ccccc1F)=NC2", "note": "[1'-Hydroxymidazolam, 1'-hydroxymidazolam]", "values": [{"measurement": "tmax [median (range)]", "setting": "[1]; CBJ (3 × 240 ml sweetened double-strength juice E), single oral 5 mg midazolam", "result": "2.0 (1.0−6.0) h"}, {"measurement": "AUC0-∞, Geometric Mean (CV %)", "setting": "[1]; [3]", "result": "62 (25) nM●h"}, {"measurement": "AUClast, Geometric Mean (CV %)", "setting": "[1]; [3]", "result": "55 (23) nM●h"}, {"measurement": "t1/2 (terminal half-life), Geometric Mean (CV %)", "setting": "[1]; [3]", "result": "3.3 (19) h"}, {"measurement": "Cmax", "setting": "[1]; [3]", "result": 10, "unit": "nM"}, {"measurement": "Cmax", "setting": "[1]; [4]", "result": 33, "unit": "nM"}, {"measurement": "AUC0-∞, CBJ / Water Ratio [90% CI]", "setting": "[1]; single oral 5 mg midazolam", "result": "0.84 [0.77−0.92]"}, {"measurement": "AUClast, CBJ / Water Ratio [90% CI]", "setting": "[1]; single oral 5 mg midazolam", "result": "0.80 [0.73−0.88]"}, {"measurement": "Cmax, CBJ / Water Ratio [90% CI]", "setting": "[1]; single oral 5 mg midazolam", "result": "0.32 [0.27−0.38]"}, {"measurement": "t1/2, CBJ / Water Ratio [90% CI]", "setting": "[1]; single oral 5 mg midazolam", "result": "1.04 [0.89−1.20]"}, {"measurement": "AUC0-∞, Geometric Mean (CV %)", "setting": "[1]; [4]", "result": "74 (37) nM●h"}, {"measurement": "AUClast, Geometric Mean (CV %)", "setting": "[1]; [4]", "result": "69 (35) nM●h"}, {"measurement": "t1/2 (terminal half-life), Geometric Mean (CV %)", "setting": "[1]; [4]", "result": "3.2 (35) h"}, {"measurement": "tmax [median (range)]", "setting": "[1]; water, single oral 5 mg midazolam, 16 healthy volunteers", "result": "0.5 (0.25−1.5) h"}]}
{"smiles": "Cc1ncc2n1-c1ccc(Cl)cc1C(c1ccccc1F)=NC2", "note": "[midazolam]", "values": [{"measurement": "Papp A→B at 3 μM", "setting": "[2]; Caco-2, Papp, acidic pH (5.5)", "result": "21.9 ± 3.3", "unit": "×10⁻⁶ cm/s"}, {"measurement": "Papp A→B at 3 μM", "setting": "[2]; Caco-2, pH 7.4, Papp, control (plain incubation medium, pH 7.4)", "result": "19.4 ± 1.8", "unit": "×10⁻⁶ cm/s"}, {"measurement": "Papp A→B at 3 μM", "setting": "[2]; Caco-2, pH 7.4, Papp, high glucose (50 g/L, pH 7.4)", "result": "18.9 ± 2.8", "unit": "×10⁻⁶ cm/s"}, {"measurement": "total amount of midazolam recovered from apical and basolateral chambers", "setting": "Caco-2 cell monolayers; all time points, all conditions", "result": "≥ 80 % of the initial amount added to the apical chamber"}, {"measurement": "amount of midazolam recovered from cell scrapings", "setting": "Caco-2 cell monolayers; end of 4-hour experiment, all four conditions", "result": "7−9 % of the initial amount added to the apical chamber"}, {"measurement": "CI/F, Geometric Mean (CV %)", "setting": "[1]; [3]", "result": "54 (30) L/h"}, {"measurement": "t1/2 (terminal half-life), Geometric Mean (CV %)", "setting": "[1]; [3]", "result": "2.9 (25) h"}, {"measurement": "half-life", "setting": "[1]; human, plasma, po, 5 mg", "result": 2.9, "unit": "h"}, {"measurement": "AUC0-∞, CBJ / Water Ratio [90% CI]", "setting": "[1]; single oral 5 mg midazolam", "result": "1.33 [1.17−1.50]"}, {"measurement": "AUClast, CBJ / Water Ratio [90% CI]", "setting": "[1]; single oral 5 mg midazolam", "result": "1.31 [1.18−1.46]"}, {"measurement": "CI/F, CBJ / Water Ratio [90% CI]", "setting": "[1]; single oral 5 mg midazolam", "result": "0.75 [0.67−0.85]"}, {"measurement": "Cmax, CBJ / Water Ratio [90% CI]", "setting": "[1]; single oral 5 mg midazolam", "result": "0.56 [0.49−0.64]"}, {"measurement": "t1/2, CBJ / Water Ratio [90% CI]", "setting": "[1]; single oral 5 mg midazolam", "result": "1.01 [0.86−1.19]"}, {"measurement": "CI/F, Geometric Mean (CV %)", "setting": "[1]; [4]", "result": "71 (33) L/h"}]}
